Source: US7511033B2, “Dihydro-benzo[B][1,4]diazepin-2-one sulfonamide derivatives” (Hoffmann-La Roche Inc., priority 2007, dated 2009)

Assays:
rat mGlu2 receptor = target: T1, rat mGlu2 receptor (Rattus norvegicus, UniProt P31421); experiment: [3H]-LY354740 binding on mGlu2 transfected CHO cell membranes; conditions: inhibition of 10 nM [3H]-LY354740 binding, room temperature, 1 hour
T1 construct: expressed in transfected cells; membranes prepared from them
Source text: [^3H]-LY354740 Binding on mGlu2 Transfected CHO Cell Membranes. Transfection and Cell Culture
cDNA encoding the rat mGlu2 receptor protein in pBluescript II was subcloned into the eukaryotic expression vector pcDNA I-amp from Invitrogen Ltd (Paisley, UK). This vector construct (pcD1 mGR2) was co-transfected with a psvNeo plasmid encoding the gene for neomycin resistance, into CHO cells by a modified calcium phosphate method described by Chen & Okayama (1988). The cells were maintained in Dulbecco's Modified Eagle medium with reduced L-glutamine (1 mM final concentration), 36 mg/L L-Proline and 10% dialysed foetal calf serum from Gibco-Invitrogen; the medium was supplemented with 500 microM α-methyl-4-carboxyphenylglycine (MCPG). Selection was made in the presence of G-418 (300 ug/ml final concentration). Clones were identified by reverse transcription of 5 μg total RNA, followed by PCR using mGlu2 receptor specific primers 5′-[…]-3′ and 5′-[…]-3′ in 60 mM Tris HCl (pH 10), 15 mM (NH4)2SO4, 2 mM MgCl2, 25 units/ml Taq Polymerase with 30 cycles annealing at 60° C. for 1 min., extension at 72° C. for 30 s, and 1 min. 95° C. denaturation.
Cells, cultured as above, were harvested and washed three times with cold PBS and frozen at −80° C. The pellet was resuspended in cold 20 mM HEPES-NaOH buffer containing 10 mM EDTA (pH 7.4), and homogenized with a polytron (Kinematica, AG, Littau, Switzerland) for 10 s at 10 000 rpm. After centrifugation for 30 min. at 4° C., the pellet was washed once with cold 20 mM HEPES-NaOH buffer containing 0.1 mM EDTA, (pH 7.4). After a second centrifugation for 30 min. at 4° C. the pellet was resuspended in cold 20 mM HEPES-NaOH buffer containing 0.1 mM EDTA, (pH 7.4). Protein content was measured using the Micro BCA method from Pierce-Perbio (Rockford, Ill., USA) using bovine serum albumin as standard.
After thawing, the membranes were resuspended in cold 50 mM Tris-HCl buffer containing 2 mM MgCl2 (pH 7.4) (binding buffer). The final concentration of the membranes in the assays was 25 μg protein/ml. Inhibition experiments were performed with membranes incubated with 10 nM [^3H]-LY354740 at room temperature, for 1 hour, in presence of various concentrations of the compound to be tested. Following the incubations, membranes were filtered onto Whatmann GF/B glass fiber filters or onto GF/B Unifilter plates and washed 5 times with cold binding buffer. Non specific binding was measured in the presence of 10 μM (2S,2′R,3′R)-2-(2′3′-Dicarboxycyclopropyl)glycine (DCG IV from Tocris, Ellisville, Mo. USA). After transfer of the filters into plastic vials containing 10 ml of Ultima-gold scintillation fluid from Perkin-Elmer (Boston, Mass., USA), the radioactivity was measured by liquid scintillation in a Tri-Carb 2500 TR counter (Packard, Zürich, Switzerland). For 96-Unifilter plates the radioactivity was measured after addition of Microscint 40 scintillation fluid (Perkin Elmer, Boston Mass.) using a TopCount NXT (Packard)
The inhibition curves were fitted with a four parameter logistic equation giving IC50 values, and Hill coefficients.

T1 sequence (P31421 19-872): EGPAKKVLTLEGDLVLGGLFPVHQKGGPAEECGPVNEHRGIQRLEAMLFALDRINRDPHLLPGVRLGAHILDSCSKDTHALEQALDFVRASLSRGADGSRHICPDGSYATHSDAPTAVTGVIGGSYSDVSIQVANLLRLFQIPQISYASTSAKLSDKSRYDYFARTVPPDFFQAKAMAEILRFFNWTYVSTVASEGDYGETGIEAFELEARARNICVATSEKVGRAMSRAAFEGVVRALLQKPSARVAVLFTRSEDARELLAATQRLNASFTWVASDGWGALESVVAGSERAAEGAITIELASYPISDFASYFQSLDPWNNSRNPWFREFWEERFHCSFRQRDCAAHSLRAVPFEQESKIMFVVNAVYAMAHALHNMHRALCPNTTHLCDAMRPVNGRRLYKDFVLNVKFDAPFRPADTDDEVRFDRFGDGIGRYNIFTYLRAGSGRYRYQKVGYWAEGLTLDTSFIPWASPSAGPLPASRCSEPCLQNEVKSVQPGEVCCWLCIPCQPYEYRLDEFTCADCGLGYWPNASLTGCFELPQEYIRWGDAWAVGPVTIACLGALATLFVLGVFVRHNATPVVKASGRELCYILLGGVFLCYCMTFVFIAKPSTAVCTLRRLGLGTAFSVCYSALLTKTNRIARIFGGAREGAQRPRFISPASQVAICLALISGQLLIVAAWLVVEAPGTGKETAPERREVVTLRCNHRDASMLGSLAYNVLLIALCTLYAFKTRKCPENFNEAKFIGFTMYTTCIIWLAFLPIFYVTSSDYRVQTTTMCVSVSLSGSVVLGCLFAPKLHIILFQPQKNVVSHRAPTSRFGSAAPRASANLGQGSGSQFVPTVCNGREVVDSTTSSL

| Structure (SMILES) | Ki (rat mGlu2 receptor) [nM] | melting point |
| --- | --- | --- |
| CC(C)CN(C)c1cc2c(cc1C(F)(F)F)NC(=O)CC(c1cccc(-c3cccc(S(N)(=O)=O)c3)c1)=N2 [Example 15, 3′-[8-(Isobutyl-methyl-amino)-4-oxo-7-trifluoromethyl-4,5-dihydro-3H-benzo[b][1,4]diazepin-2-yl]-biphenyl-3-sulfonic acid amide] | 8.7 | 232 °C (dec.) |
| CC(C)(C)NS(=O)(=O)c1ccc(-c2cccc(C3=Nc4ccc(C(F)(F)F)cc4NC(=O)C3)c2)cc1 [Example 5, 3′-(4-Oxo-7-trifluoromethyl-4,5-dihydro-3H-benzo[b][1,4]diazepin-2-yl)-biphenyl-4-sulfonic acid tert-butylamide] | 16 | 229 to 233 °C |
| NS(=O)(=O)c1ccc(-c2cccc(C3=Nc4ccc(-c5ccccc5F)cc4NC(=O)C3)c2)cc1 [Example 16, 3′-[7-(2-Fluoro-phenyl)-4-oxo-4,5-dihydro-3H-benzo[b][1,4]diazepin-2-yl]-biphenyl-4-sulfonic acid amide] | 5.6 | 240 to 250 °C (dec.) |
| CCOc1cc2c(cc1C(F)(F)F)NC(=O)CC(c1cccc(-c3ccc(S(N)(=O)=O)cc3)c1)=N2 [Example 11, 3′-(8-Ethoxy-4-oxo-7-trifluoromethyl-4,5-dihydro-3H-benzo[b][1,4]diazepin-2-yl)-biphenyl-4-sulfonic acid amide] | 3 | 245 to 250 °C (dec.) |
| Cc1cc2c(cc1C(F)(F)F)NC(=O)CC(c1cccc(-c3cccc(S(=O)(=O)NC(C)(C)C)c3)c1)=N2 [Example 2, 3′-(8-Methyl-4-oxo-7-trifluoromethyl-4,5-dihydro-3H-benzo[b][1,4]diazepin-2-yl)-biphenyl-3-sulfonic acid tert-butylamide] | 20 | 133 °C (dec.) |
| NS(=O)(=O)c1cccc(-c2cccc(C3=Nc4ccc(C(F)(F)F)cc4NC(=O)C3)c2)c1 [Example 8, 3′-(4-Oxo-7-trifluoromethyl-4,5-dihydro-3H-benzo[b][1,4]diazepin-2-yl)-biphenyl-3-sulfonic acid amide] | 1.7 | 170 °C (dec.) |
| CC(C)CNc1cc2c(cc1C(F)(F)F)NC(=O)CC(c1cccc(-c3ccc(S(N)(=O)=O)cc3)c1)=N2 [Example 18, 3′-(8-Isobutylamino-4-oxo-7-trifluoromethyl-4,5-dihydro-3H-benzo[b][1,4]diazepin-2-yl)-biphenyl-4-sulfonic acid amide] | 21 | – |
| CCOc1cc2c(cc1C(F)(F)F)NC(=O)CC(c1cccc(-c3cccc(S(=O)(=O)NC(C)(C)C)c3)c1)=N2 [Example 6, 3′-(8-Ethoxy-4-oxo-7-trifluoromethyl-4,5-dihydro-3H-benzo[b][1,4]diazepin-2-yl)-biphenyl-3-sulfonic acid tert-butylamide] | 9 | 215 to 218 °C |

Next, values leading:

| Ki (rat mGlu2 receptor) [nM] | melting point | Structure (SMILES) |
| --- | --- | --- |
| 30 | > 260 °C | CCOc1cc2c(cc1C(F)(F)F)NC(=O)CC(c1cccc(-c3ccc(S(=O)(=O)NC(C)(C)C)cc3)c1)=N2 [Example 7, 3′-(8-Ethoxy-4-oxo-7-trifluoromethyl-4,5-dihydro-3H-benzo[b][1,4]diazepin-2-yl)-biphenyl-4-sulfonic acid tert-butylamide] |
| 3.1 | 246 °C (dec.) | CN(C)c1cc2c(cc1C(F)(F)F)NC(=O)CC(c1cccc(-c3ccc(S(N)(=O)=O)cc3)c1)=N2 [Example 12, 3′-(8-Dimethylamino-4-oxo-7-trifluoromethyl-4,5-dihydro-3H-benzo[b][1,4]diazepin-2-yl)-biphenyl-4-sulfonic acid amide] |
| 3.6 | 251 °C (dec.) | CC(C)CNc1cc2c(cc1C(F)(F)F)NC(=O)CC(c1cccc(-c3cccc(S(N)(=O)=O)c3)c1)=N2 [Example 19, 3′-(8-Isobutylamino-4-oxo-7-trifluoromethyl-4,5-dihydro-3H-benzo[b][1,4]diazepin-2-yl)-biphenyl-3-sulfonic acid amide] |
| 2.7 | 210 to 220 °C (dec.) | CCOc1cc2c(cc1C(F)(F)F)NC(=O)CC(c1cccc(-c3cccc(S(N)(=O)=O)c3)c1)=N2 [Example 10, 3′-(8-Ethoxy-4-oxo-7-trifluoromethyl-4,5-dihydro-3H-benzo[b][1,4]diazepin-2-yl)-biphenyl-3-sulfonic acid amide] |
| 0.9 | 235 to 239 °C (dec.) | Cc1cc2c(cc1C(F)(F)F)NC(=O)CC(c1cccc(-c3cccc(S(N)(=O)=O)c3)c1)=N2 [Example 3, 3′-(8-Methyl-4-oxo-7-trifluoromethyl-4,5-dihydro-3H-benzo[b][1,4]diazepin-2-yl)-biphenyl-3-sulfonic acid amide] |
| 1.2 | 258 °C (dec.) | CN(C)c1cc2c(cc1C(F)(F)F)NC(=O)CC(c1cccc(-c3cccc(S(N)(=O)=O)c3)c1)=N2 [Example 13, 3′-(8-Dimethylamino-4-oxo-7-trifluoromethyl-4,5-dihydro-3H-benzo[b][1,4]diazepin-2-yl)-biphenyl-3-sulfonic acid amide] |
| 1.9 | > 260 °C | Cc1cc2c(cc1C(F)(F)F)NC(=O)CC(c1cccc(-c3ccc(S(N)(=O)=O)cc3)c1)=N2 [Example 1, 3′-(8-Methyl-4-oxo-7-trifluoromethyl-4,5-dihydro-3H-benzo[b][1,4]diazepin-2-yl)-biphenyl-4-sulfonic acid amide] |
| 17 | 236 °C (dec.) | CC(C)CN(C)c1cc2c(cc1C(F)(F)F)NC(=O)CC(c1cccc(-c3ccc(S(N)(=O)=O)cc3)c1)=N2 [Example 14, 3′-[8-(Isobutyl-methyl-amino)-4-oxo-7-trifluoromethyl-4,5-dihydro-3H-benzo[b][1,4]diazepin-2-yl]-biphenyl-4-sulfonic acid amide] |
| 12 | 179 to 181 °C | CC(C)(C)NS(=O)(=O)c1cccc(-c2cccc(C3=Nc4ccc(C(F)(F)F)cc4NC(=O)C3)c2)c1 [Example 4, 3′-(4-Oxo-7-trifluoromethyl-4,5-dihydro-3H-benzo[b][1,4]diazepin-2-yl)-biphenyl-3-sulfonic acid tert-butylamide] |
| 2.2 | 230 to 232 °C | NS(=O)(=O)c1cccc(-c2cccc(C3=Nc4ccc(-c5ccccc5F)cc4NC(=O)C3)c2)c1 [Example 17, 3′-[7-(2-Fluoro-phenyl)-4-oxo-4,5-dihydro-3H-benzo[b][1,4]diazepin-2-yl]-biphenyl-3-sulfonic acid amide] |
| 3 | 195 to 210 °C (dec.) | NS(=O)(=O)c1ccc(-c2cccc(C3=Nc4ccc(C(F)(F)F)cc4NC(=O)C3)c2)cc1 [Example 9, 3′-(4-Oxo-7-trifluoromethyl-4,5-dihydro-3H-benzo[b][1,4]diazepin-2-yl)-biphenyl-4-sulfonic acid amide] |
